From paper PMC12673918, “Design, Synthesis, and Selective Antiproliferative Activity of Indolizine Derivatives as Microtubule Destabilizers” (Archiv Der Pharmazie, 2025)
Where two headings read alike, the source gives them in different places.

Assays:
Format in all cases: cell-based
[1] = test system: HGC‐27 (gastric carcinoma); experiment: Resazurin cell viability assay, HGC‐27; settings: 50 µM; for inhibition at 50 µM: Homo sapiens, HGC-27
Experimental: (§1) The tongue squamous cell carcinoma cell line CAL‐27 (ATCC CRL‐2095), breast carcinoma BT‐20 (ATCC HTB‐19), gastric carcinoma HGC‐27 (BCRJ Code 0310), and normal oral fibroblast OHMF (culture of fibroblasts derived from human oral healthy mucosa, approved by the Research Ethics Committee of the University of São Paulo, Campus of Ribeirão Preto, Brazil (with protocol number 049) were cultured in DMEM medium (DMEM, Sigma‐Aldrich, St. Louis, MO, USA) supplemented with 10% fetal bovine serum and a solution of penicillin (100 U/mL) and streptomycin (100 μg/mL). The cultures were maintained in a humidified incubator with 5% CO₂ at 37°C.
(§2) Cell viability was analyzed using the resazurin assay. For this, cells were seeded in 96‐well plates (1 × 10^3 cells per well) and incubated at 37°C with 5% CO₂ overnight for cell adhesion. Subsequently, the cells were treated with different compounds (0–50 µM) for 72 h. After treatment, the medium was replaced with phenol‐free DMEM medium (Sigma‐Aldrich) containing resazurin at a concentration of 44 µM (Sigma‐Aldrich). After incubation for 4 h at 37°C, fluorescence detection was performed (excitation 530/25 nm, emission 590/35 nm) using a microplate fluorimeter (Synergy 2, Biotek). Initial cell growth inhibition assays were performed in triplicate or quadruplicate, while IC50 determinations were conducted in triplicate. Data were plotted, and IC₅₀ values were determined by nonlinear regression using GraphPad Prism software 9.0.
(§3) ^a Cell viability was assessed using the resazurin assay after 72 hours of compound treatment. Fluorescence was measured to estimate % of cellular growth inhibition at 50 µM values, based on triplicate experiments.
(§4) ^b IC50 values were determined using the same resazurin-based assay, with fluorescence measurements performed after 72 hours of treatment. These experiments were carried out in triplicate.

[2] = test system: BT‐20 (breast carcinoma); experiment: Resazurin cell viability assay, BT‐20; settings: 50 µM; for inhibition at 50 µM: Homo sapiens, BT-20
Experimental: as §1, §2, §3, §4

[3] = test system: CAL‐27 (oral carcinoma); experiment: Resazurin cell viability assay, CAL‐27; settings: 50 µM; for inhibition at 50 µM: Homo sapiens, CAL-27
Experimental: as §1, §2, §3, §4

[4] = molecular target: T1, human P2X7 receptor (Homo sapiens, UniProt Q99572); experiment: YO‐PRO‐1 dye uptake assay for the P2X7 receptor; settings: for inhibition at 10 µM: P2X7, read-out: % Inhibition of P2X7R at 10 µM compounds’ concentration
T1 construct: host or cells: HEK-293
T1 sequence (Q99572 1-595): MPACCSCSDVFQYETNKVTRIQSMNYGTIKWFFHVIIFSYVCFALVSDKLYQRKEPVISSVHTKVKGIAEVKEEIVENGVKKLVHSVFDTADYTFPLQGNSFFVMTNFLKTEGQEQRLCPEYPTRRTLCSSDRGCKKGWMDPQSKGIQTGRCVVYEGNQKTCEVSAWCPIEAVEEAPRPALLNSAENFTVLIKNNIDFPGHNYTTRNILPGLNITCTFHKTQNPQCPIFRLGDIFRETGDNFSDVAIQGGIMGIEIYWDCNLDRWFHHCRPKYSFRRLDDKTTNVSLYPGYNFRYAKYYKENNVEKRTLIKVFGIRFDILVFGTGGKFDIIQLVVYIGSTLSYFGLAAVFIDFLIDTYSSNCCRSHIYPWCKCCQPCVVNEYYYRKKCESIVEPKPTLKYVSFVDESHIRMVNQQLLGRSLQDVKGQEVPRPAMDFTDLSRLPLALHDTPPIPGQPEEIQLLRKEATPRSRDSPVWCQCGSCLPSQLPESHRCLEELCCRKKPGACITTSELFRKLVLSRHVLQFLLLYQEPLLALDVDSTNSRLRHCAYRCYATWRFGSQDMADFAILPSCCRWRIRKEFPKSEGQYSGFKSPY
Experimental: HEK‐293 cell lines stably expressing human P2X7 receptor (hP2X7R‐HEK‐293, B'SYS GmbH, Witterswil, Switzerland) were maintained in a 50/50 mix of Dulbecco's Modified Eagle Medium and F12 medium (DMEM/F12) supplemented with 9% (v/v) FCS, 1% (v/v) Penicillin/Streptomycin (10000 I.U./mL, 10 mg/mL in 0.9% NaCl) and G418 (100 µg/mL) at 37°C and 5% CO2. Cells were subcultured in cell culture 75 cm^2 flasks and split every 2‐4 days (1:3; 1:6; 1:10) once confluent.
HEK‐293 cell lines stably expressing human P2X7 receptor were seeded into black‐walled Nunc 96‐well optical bottom plates (Thermo Fisher Scientific) at 2.0–4.0 × 10^4 cells/well and incubated at 37°C for 24–48 h. After removing the culture medium, cells were washed with 100 µL wash buffer (280 mM Sucrose; 5.6 mM KCl; 0.5 mM CaCl2; 10 mM D‐Glucose; 10 mM HEPES; 5 mM N‐Methyl‐D‐glucamine (pH 7.4)). Then, 50 µL assay buffer (280 mM Sucrose; 6.4 mM KCl, 10 mM D‐Glucose; 10 mM HEPES; 5.0 mM N‐Methyl‐D‐glucamine (pH 7.4)) and 50 µL of antagonist dilutions (10^–5–10^–9 M) in assay buffer were added, and the cells were incubated at 37°C for 30 min. […] Finally, the uptake of YO‐PRO‐1 dye was recorded in a 9‐point‐well scan by following the fluorescence change using a FlexStation 3 Multi‐Mode Microplate Reader (Molecular Devices, San Jose, CA, USA, Software SoftMax7 Pro, endpoint protocol, well scan with reading pattern “fill scan”, λ ex = 485 nm, λ em = 535 nm). To determine the concentration‐dependent uptake inhibition by antagonists, the YO‐PRO‐1 uptake, expressed as RFU, was plotted against the concentrations of the compounds.

[5] = molecular target: T2, human P2X4 receptor (Homo sapiens, UniProt Q99571); experiment: Ca2+‐flux assay for the hP2X4 receptor; settings: read-out: % Inhibition of P2X4R at 10 µM compounds’ concentration
T2 construct: expressed in transfected cells; host or cells: human 1321N1 astrocytoma cells
T2 sequence (Q99571 1-388): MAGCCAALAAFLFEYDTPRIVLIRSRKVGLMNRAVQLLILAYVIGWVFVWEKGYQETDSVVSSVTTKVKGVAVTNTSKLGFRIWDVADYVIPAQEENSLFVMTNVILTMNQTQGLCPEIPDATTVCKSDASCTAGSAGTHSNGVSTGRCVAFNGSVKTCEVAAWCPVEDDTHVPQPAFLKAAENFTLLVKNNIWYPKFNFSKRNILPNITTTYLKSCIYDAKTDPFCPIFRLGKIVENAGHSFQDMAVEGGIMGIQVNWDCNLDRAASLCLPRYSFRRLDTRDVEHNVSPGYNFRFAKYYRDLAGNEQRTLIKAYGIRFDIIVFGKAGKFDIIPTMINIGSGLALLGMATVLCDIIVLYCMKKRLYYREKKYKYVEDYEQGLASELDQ
Experimental: Human 1321N1 astrocytoma cells stably expressing the human P2X4 receptor (generated in‐house) were cultured in Dulbecco's Modified Eagle Medium supplemented with 9% (v/v) FCS, 1% (v/v) Penicillin/Streptomycin (10000 I.U./mL, 10 mg/mL in 0.9% NaCl) and puromycin (1 µg/mL) as a selection antibiotic at 37°C and 5% CO2. Cells were subcultured in cell culture 75 cm^2 flasks and split every 2–4 days (1:5; 1:6) once confluent.
1321N1 cells stably expressing human P2X4 receptor were seeded into black‐walled 96‐well plates (Thermo Fisher Scientific) at 2.5 × 10^4 cells/well and incubated at 37°C for 24–48 h. All test compounds were diluted in assay buffer solution (SBS: 135 mM NaCl; 5 mM KCl; 1 mM MgCl2.6 H2O; 1.8 mM CaCl2; 5.6 mM D‐Glucose; 10 mM HEPES, 0.1% (m/v) BSA, 0.05% (m/v) gelatine, 2.3 mM probenecid). The culture medium was removed, and 100 µL of 4 μM fluorescent Ca^2+ indicator Calbryte520AM in SBS was added and incubated at 37°C for 1 h. The dye solution was then removed, 100 µL of SBS solution and 50 µL of antagonist dilutions (10^–5–10^–9 M) in SBS were added, and the cells were incubated at room temperature for an extra 30 min. Finally, 50 µL of ATP (at a concentration of the previously determined EC50‐ value) was added by using FlexStation 3 Multi‐Mode Microplate Reader (Molecular Devices, San Jose, CA, USA, Software SoftMax7 Pro). The changes in intracellular Ca^2+ ion concentrations were monitored over 200 s (20 s baseline) by measuring the fluorescence signal at λ ex = 494 nm and λ em = 516 nm ([…] cut‐off). The concentration‐dependent decrease in Ca^2+‐flux, expressed as RFU, was plotted against the concentrations of the compounds.

[6] = 72 hours, triplicate, read-out: % Cellular growth inhibition (at 50 µM) HGC-27 (supplement)
[7] = 72 hours, triplicate, read-out: % Cellular growth inhibition (at 50 µM) BT-20 (supplement)
[8] = 72 hours, triplicate, read-out: % Cellular growth inhibition (at 50 µM) CAL-27 (supplement)
[9] = 72 h, mean ± SD, n = 3, read-out: % Cellular growth inhibition (at 50 µM) HGC‐27
[10] = 72 h, mean ± SD, n = 3, read-out: % Cellular growth inhibition (at 50 µM) BT‐20
[11] = 72 h, mean ± SD, n = 3, read-out: % Cellular growth inhibition (at 50 µM) CAL‐27

Row | Compound | inhibition at 50 µM [1, 9] [%] | inhibition at 50 µM [2, 10] [%] | inhibition at 50 µM [3, 11] [%] | inhibition at 10 µM [4] [%] | inhibition at 10 µM [5] [%] | also measured
1 | 1‐(4‐methoxyphenyl)‐2‐(pyridin‐2‐yl)ethanone [Compound 4c] |  |  |  |  |  | % Cellular growth inhibition (at 50 µM) HGC-27 (supplement) ([1]; 72 hours, triplicate): 14.1 ± 1.8%; % Cellular growth inhibition (at 50 µM) BT-20 (supplement) ([2]; 72 hours, triplicate): 13.7 ± 0.7%; % Cellular growth inhibition (at 50 µM) CAL-27 (supplement) ([3]; 72 hours, triplicate): 9.0 ± 0.8%
2 | 2‐(pyridin‐2‐yl)‐1‐(p‐tolyl)ethanone [Compound 4d] |  |  |  |  |  | % Cellular growth inhibition (at 50 µM) HGC-27 (supplement) ([1]; 72 hours, triplicate): 17.3 ± 1.2%; % Cellular growth inhibition (at 50 µM) BT-20 (supplement) ([2]; 72 hours, triplicate): 17.4 ± 0.6%; % Cellular growth inhibition (at 50 µM) CAL-27 (supplement) ([3]; 72 hours, triplicate): 12.6 ± 1.2%
3 | O=C(NCC12CC3CC(CC(C3)C1)C2)c1cc(CCCNCCCO)ccc1Cl [AZD9056, reference compound] |  |  |  |  |  | IC50 ([4]; reference compound, same conditions, read-out: pIC50 at P2X7R (converted)): 10.5 nM
4 | O=C(Cc1ccccn1)c1ccccc1 [Compound 4a, 1‐phenyl‐2‐(pyridin‐2‐yl)ethanone] |  |  |  |  |  | inhibition at 50 µM [1, 6]: 2.4 ± 0.9%; inhibition at 50 µM [2, 7]: 7.5 ± 0.5%; inhibition at 50 µM [3, 8]: 12.2 ± 2%
5 | O=C(Cc1ccccn1)c1ccc(Cl)cc1 [Compound 4b, 1‐(4‐chlorophenyl)‐2‐(pyridin‐2‐yl)ethanone] |  |  |  |  |  | inhibition at 50 µM [1, 6]: 16.1 ± 1.6%; inhibition at 50 µM [2, 7]: 17.3 ± 1.8%; inhibition at 50 µM [3, 8]: 11.4 ± 0.4%
6 | O=C(Cc1ccccn1)c1ccc(Cl)c(Cl)c1 [Compound 4e, 1‐(3,4‐dichlorophenyl)‐2‐(pyridin‐2‐yl)ethanone] |  |  |  |  |  | inhibition at 50 µM [1, 6]: 36.9 ± 0.8%; inhibition at 50 µM [2, 7]: 43.3 ± 0.6%; inhibition at 50 µM [3, 8]: 22.3 ± 1.3%
7 | COc1cc(C(=O)Cc2ccccn2)cc(OC)c1OC [Compound 4f, 2‐(pyridin‐2‐yl)‐1‐(3,4,5‐trimethoxyphenyl)ethenone] | 10 ± 0.7 | 19 ± 1.2 | 20 ± 2.2 |  |  | 
8 | COc1ccc(CC(=O)c2cc(OC)c(OC)c(OC)c2)nc1 [Compound 5f, 2‐(5‐methoxypyridin‐2‐yl)‐1‐(3,4,5‐trimethoxyphenyl)ethenone] | 48 ± 4.9 | 52 ± 4.2 | 67 ± 2.7 | 5 | 4 | 
9 | O=C(c1ccccc1)c1ccn2ccccc12 [Compound 6a, (Indolizin‐1‐yl)(phenyl)methanone] | 20 ± 1.1 | 26 ± 1 | 15 ± 0.8 |  |  | 
10 | O=C(c1ccc(Cl)cc1)c1ccn2ccccc12 [Compound 6b, (4‐chlorophenyl)(indolizin‐1‐yl)methanone] | 26 ± 1 | 32 ± 0.8 | 25 ± 0.4 | 10 | -3 | 
11 | Cc1ccc(C(=O)c2ccn3ccccc23)cc1 [Compound 6c, (Indolizin‐1‐yl)(p‐tolyl)methanone] | 20 ± 0.6 | 28 ± 1.3 | 22 ± 2.6 | -8 | 3 | 
12 | COc1ccc(C(=O)c2ccn3ccccc23)cc1 [Compound 6d, (Indolizin‐1‐yl)(4‐methoxyphenyl)methanone] | 24 ± 1.1 | 28 ± 0.5 | 18 ± 0.6 | 5 | 0 | 
13 | O=C(c1ccc(Cl)c(Cl)c1)c1ccn2ccccc12 [Compound 6e, (3,4‐dichlorophenyl)(indolizin‐1‐yl)methanone] | 41 ± 1 | 40 ± 0.4 | 42 ± 0.8 | 7 | 9 | 
14 | COc1cc(C(=O)c2ccn3ccccc23)cc(OC)c1OC [Compound 6f, (Indolizin‐1‐yl)(3,4,5‐Trimethoxyphenyl)Methanone] | 38 ± 1.6 | 43 ± 0.5 | 57 ± 0.9 |  |  | 
15 | COc1ccc2c(C(=O)c3ccccc3)ccn2c1 [Compound 7a, (6‐methoxyindolizin‐1‐yl)(phenyl)methanone] | 18 ± 0.5 | 20 ± 0.4 | 20 ± 0.9 | -6 | -7 | 
